Experimental data from patent publication US12102639B2, “Imipridones for gliomas” (Oncoceutics, Inc., priority 2017, dated 2024).
Entries after “also recorded” stand apart in the source; their conditions may differ. Values belong to the compound of their own block, whether it stands above or below them.

Experiments:
Bone cancer = Bone cancer responsiveness; assay type: cell-based; settings: FIG. 5
HFF (Normal Fibroblast) = assay: Cell viability of HFF normal fibroblasts; settings: therapeutic doses, Table 5
[1] = test system: DRD2 (short and long isoforms); assay: GPCR β-arrestin recruitment reporter assay, DRD2; assay type: cell-based; settings: for activity at DRD2: arrestin recruitment reporter assay
[2] = test system: NCI60 cancer cell line panel; assay: NCI60 cancer cell line panel; assay type: cell-based; settings: NCI60 panel (FIG. 4)
several cell lines = assay: In vitro potency in several cell lines (Table 5)
[3] = test system: Ewing's sarcoma cell lines; assay: Ewing's sarcoma cell lines; assay type: cell-based; settings: 16 Ewing's sarcoma cell lines (FIG. 6, 7)
[4] = test system: patient-derived glioma stem cell (GSC) populations; assay: Patient-derived glioma stem cell assays (CellTiter-Glo, limiting dilution, sphere formation); assay type: cell-based, human
Source text: In silico analysis of a glioma patient database led to investigation of DRD2 signaling in glioma; alteration of DRD2 mRNA expression was directly connected to global gene expression change in the glioma patient database.

CXCR7 = molecular target: T1, CXCR7 (Homo sapiens, UniProt P25106); assay: GPCR arrestin recruitment reporter assay, CXCR7; assay type: cell-based
T1 construct: expressed in transfected cells
T1 sequence (P25106 whole entry): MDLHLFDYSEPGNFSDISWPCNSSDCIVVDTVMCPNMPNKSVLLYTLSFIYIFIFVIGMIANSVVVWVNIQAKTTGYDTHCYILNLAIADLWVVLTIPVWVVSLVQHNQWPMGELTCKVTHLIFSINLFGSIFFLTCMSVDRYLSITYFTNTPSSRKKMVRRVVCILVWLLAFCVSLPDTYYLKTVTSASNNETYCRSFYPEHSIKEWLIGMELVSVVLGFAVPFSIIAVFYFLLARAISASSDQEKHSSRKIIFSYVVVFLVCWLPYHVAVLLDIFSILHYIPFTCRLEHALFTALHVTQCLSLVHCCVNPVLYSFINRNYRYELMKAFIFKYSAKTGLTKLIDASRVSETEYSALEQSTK
Source text: (§1) ONC201 dihydrochloride was obtained from Oncoceutics.

DRD3 = DRD3 (Homo sapiens, UniProt P35462); assay: GPCR β-arrestin recruitment reporter assay, DRD3; assay type: cell-based
DRD3, sequence (P35462 whole entry): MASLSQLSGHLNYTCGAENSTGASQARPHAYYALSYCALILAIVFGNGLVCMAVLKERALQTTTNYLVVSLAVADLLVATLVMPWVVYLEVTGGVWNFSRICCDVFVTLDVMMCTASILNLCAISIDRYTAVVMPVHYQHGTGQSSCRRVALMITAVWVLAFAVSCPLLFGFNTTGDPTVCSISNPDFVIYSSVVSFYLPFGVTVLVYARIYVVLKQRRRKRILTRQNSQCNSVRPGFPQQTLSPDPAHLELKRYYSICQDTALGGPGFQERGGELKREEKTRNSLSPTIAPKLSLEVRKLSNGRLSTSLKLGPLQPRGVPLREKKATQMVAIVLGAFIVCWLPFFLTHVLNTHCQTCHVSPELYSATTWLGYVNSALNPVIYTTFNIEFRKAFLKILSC

GPR132 = molecular target: T2, GPR132 (Homo sapiens, UniProt Q9UNW8); assay: GPCR arrestin recruitment reporter assay, GPR132; assay type: cell-based; settings: for activity at GPR132: arrestin recruitment reporter assay
T2 construct: expressed in transfected cells
T2 sequence (Q9UNW8 1-380): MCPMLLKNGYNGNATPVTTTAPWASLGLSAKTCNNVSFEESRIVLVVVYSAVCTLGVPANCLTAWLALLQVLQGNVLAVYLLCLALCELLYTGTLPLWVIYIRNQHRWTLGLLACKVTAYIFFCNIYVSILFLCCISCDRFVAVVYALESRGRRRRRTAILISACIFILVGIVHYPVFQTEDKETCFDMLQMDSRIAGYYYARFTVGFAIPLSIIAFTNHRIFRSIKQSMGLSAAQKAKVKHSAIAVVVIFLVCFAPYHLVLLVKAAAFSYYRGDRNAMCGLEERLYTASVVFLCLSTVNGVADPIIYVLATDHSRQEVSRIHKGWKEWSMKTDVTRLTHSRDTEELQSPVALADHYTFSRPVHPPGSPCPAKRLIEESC
Procedure: (§2) Dual targeting of DRD2/3 and GPR132/91 represents a novel strategy for anti-cancer efficacy without toxicity. […] The safety profile of ONC213 confirmed in mouse MTD study with NOAEL 75 mg/kg three times that of ONC212 (25 mg/kg).
as §1

GPR91 = molecular target: T3, GPR91 (Homo sapiens, UniProt Q9BXA5); assay: GPCR arrestin recruitment reporter assay, GPR91; assay type: cell-based
T3 construct: expressed in transfected cells
T3 sequence (Q9BXA5 whole entry): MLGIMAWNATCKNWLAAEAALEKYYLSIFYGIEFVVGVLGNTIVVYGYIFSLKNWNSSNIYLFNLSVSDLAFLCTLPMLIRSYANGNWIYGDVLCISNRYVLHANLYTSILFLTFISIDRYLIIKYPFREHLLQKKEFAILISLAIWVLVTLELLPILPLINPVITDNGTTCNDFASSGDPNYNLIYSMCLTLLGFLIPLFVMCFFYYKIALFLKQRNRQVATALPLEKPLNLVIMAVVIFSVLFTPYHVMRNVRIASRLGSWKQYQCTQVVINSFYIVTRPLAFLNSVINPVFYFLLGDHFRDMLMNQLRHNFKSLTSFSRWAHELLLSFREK
Procedure: as §2, §1

DRD5 = DRD5 (Homo sapiens, UniProt P21918); assay: GPCR β-arrestin recruitment reporter assay, DRD5; assay type: cell-based
DRD5, sequence (P21918 whole entry): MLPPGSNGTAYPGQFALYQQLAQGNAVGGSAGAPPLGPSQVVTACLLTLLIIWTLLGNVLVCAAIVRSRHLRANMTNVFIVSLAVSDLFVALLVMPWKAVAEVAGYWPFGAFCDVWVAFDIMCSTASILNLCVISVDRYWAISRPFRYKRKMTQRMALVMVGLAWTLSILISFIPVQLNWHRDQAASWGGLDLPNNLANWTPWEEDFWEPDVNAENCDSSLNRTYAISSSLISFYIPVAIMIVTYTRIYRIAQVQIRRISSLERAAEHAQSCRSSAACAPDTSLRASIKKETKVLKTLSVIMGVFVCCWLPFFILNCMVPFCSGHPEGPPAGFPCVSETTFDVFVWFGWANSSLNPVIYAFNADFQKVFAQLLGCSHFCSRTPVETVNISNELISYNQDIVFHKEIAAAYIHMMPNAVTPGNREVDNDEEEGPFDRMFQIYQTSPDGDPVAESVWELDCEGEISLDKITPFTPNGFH

GPCRs = assay: In vitro profiling of GPCR activity (arrestin recruitment panel)
[5] = test system: H3.3 K27M mutant diffuse intrinsic pontine glioma (DIPG); assay: Treatment of girls with H3.3 K27M mutant DIPG; settings: for symptoms / radiographic evaluation of tumor: child
DRD4 = DRD4 (Homo sapiens, UniProt P21917); settings: arrestin recruitment reporter assay
DRD4, sequence (P21917 whole entry): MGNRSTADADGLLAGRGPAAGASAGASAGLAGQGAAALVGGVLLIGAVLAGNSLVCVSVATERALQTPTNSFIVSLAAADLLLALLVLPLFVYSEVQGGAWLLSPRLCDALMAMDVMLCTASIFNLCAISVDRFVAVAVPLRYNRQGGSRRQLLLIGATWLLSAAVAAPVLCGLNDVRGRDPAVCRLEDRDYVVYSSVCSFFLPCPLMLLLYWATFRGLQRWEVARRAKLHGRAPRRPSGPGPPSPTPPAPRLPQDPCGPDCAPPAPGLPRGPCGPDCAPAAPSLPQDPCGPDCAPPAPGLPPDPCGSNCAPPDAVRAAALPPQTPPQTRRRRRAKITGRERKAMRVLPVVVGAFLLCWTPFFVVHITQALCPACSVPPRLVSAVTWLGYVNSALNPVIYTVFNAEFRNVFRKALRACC

[6] = test system: tumor cells (HCT116, MDA-MB-231, U87); assay: Cell viability of tumor cells after 72 hours; settings: Homo sapiens, read-out: viability of tumor cells
[7] = test system: recurrent high grade glioma; assay: Progression-free survival of patients with recurrent high grade glioma; assay type: in vivo, human; settings: H3 K27M (n=15) vs wild-type or unknown H3 status (n=35)
Source text: In one study of thirty-nine pediatric diffuse intrinsic pontine gliomas, DIPG patients carrying the K27M-H3.3 mutation (n=30) have worse overall survival compared to patients wild-type (n=9) for this histone (Khoung-Quang et al., Acta Neuropathol (2012) 124:439). […] The cohort is divided into two groups: one with known H3 K27M mutation (n=15) and the other with wild-type or unknown H3 status (n=35).

[8] = Phase II recurrent glioblastoma trial (NCT02525692); settings: human, in vivo, 625 mg
recurrent glioblastoma = assay: as above
MV411 AML cells = assay: MV411 AML xenograft model; settings: 50 mg/kg, oral weekly administration (ONC201 at similar doses)
[9] = test system: GDSC collection of cell lines; assay: Genomic of Drug Sensitivity in Cancer (GDSC) cell line collection; assay type: cell-based, human; settings: cell viability at 72 hours post-treatment
Source text: FIG. 2. Tumor type sensitivity of the Genomic of Drug Sensitivity in Cancer program (GDSC) cell line collection. […] Numbers above the bar indicates indicate the number of cell lines per tumor type.
High expression of DRD2 occurred in primary, rather than secondary, glioblastoma and was associated with a poor prognosis. […] Resistance could be recapitulated with overexpression of the mutant DRD5 gene or, to a lesser extent, with the wild-type gene.

DRD2 = DRD2 (Homo sapiens, UniProt P14416); settings: relative to antipsychotics
DRD2, sequence (P14416 whole entry): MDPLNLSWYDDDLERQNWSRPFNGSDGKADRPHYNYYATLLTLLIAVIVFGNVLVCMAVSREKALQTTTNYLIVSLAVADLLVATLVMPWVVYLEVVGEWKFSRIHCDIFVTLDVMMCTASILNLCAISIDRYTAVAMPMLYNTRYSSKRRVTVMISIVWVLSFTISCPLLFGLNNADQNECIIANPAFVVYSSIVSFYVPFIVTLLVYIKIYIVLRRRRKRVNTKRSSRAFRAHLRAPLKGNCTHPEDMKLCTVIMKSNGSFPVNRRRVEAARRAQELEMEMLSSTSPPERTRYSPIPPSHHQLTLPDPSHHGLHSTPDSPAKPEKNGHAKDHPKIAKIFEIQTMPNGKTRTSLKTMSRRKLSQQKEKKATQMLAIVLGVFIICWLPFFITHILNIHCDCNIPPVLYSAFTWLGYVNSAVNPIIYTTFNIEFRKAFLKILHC

[10] = test system: temozolomide-resistant high-grade glioma xenografts; assay: High-grade glioma xenografts in mice; assay type: in vivo
HCT116 cells = assay: Anticancer efficacy in HCT116 cells; assay type: cell-based, human; settings: HCT116 cells
DRD2L = DRD2L (Homo sapiens, UniProt P14416); assay: Arrestin recruitment to DRD2L, Gaddum/Schild EC50 shift analysis; assay type: cell-based
DRD2L, sequence (P14416 whole entry): as above

[11] = 17 patients, 625 mg every three weeks

Compound: O=C1C2=C(CCN(Cc3ccccc3)C2)N2CCN=C2N1Cc1ccc(F)cc1F [ONC206]
responsiveness (Bone cancer): more responsive to ONC206 than ONC201
in vitro toxicity to normal cells (HFF (Normal Fibroblast)): no in vitro toxicity to normal cells at therapeutic doses
activity at DRD2 [1]: selective DRD2 antagonism
anti-cancer efficacy [2]: demonstrated anti-cancer efficacy across various tumor types
improvement in in vitro potency compared to ONC201 (several cell lines): up to 20 fold
anti-cancer efficacy [3]: most ONC206 responsive bone cancer subtype; also recorded: nanomolar range in 14 out of 16 Ewing's sarcoma cell lines
effect on glioma stem cells ([4]; CellTiter-Glo cell viability, compared to differentiated glioma cells): potently inhibits; also recorded: preferentially eliminated GSCs
tumor sphere formation ([4]; in vitro limiting dilution assay and sphere formation analysis): prevented tumor sphere formation and tumor growth

Compound: Cc1ccccc1CN1C2=NCCN2C(=O)C2=C1CCN(Cc1ccccc1)C2 [TIC-10, reference compound]
activity at CXCR7 (CXCR7; statement in the description, no method given): CXCR7 agonist

Compound: O=C1C2=C(CCN(Cc3ccccc3)C2)N2CCN=C2N1Cc1ccc(F)c(F)c1 [ONC213]
activity at DRD2 [1]: inhibitor
DRD2/3 potency ([1]; rank against other imipridones): more than ONC201 but less than ONC206
activity at DRD3 (DRD3): inhibitor
activity at GPR132 (GPR132): agonist
GPR132 potency (GPR132; rank against other imipridones): less than ONC212
activity at GPR91 (GPR91): agonist

activity at DRD5 (DRD5): antagonist
activity at GPR132 (GPR132): agonist
Compound: O=C1C2=C(CCN(CC(O)c3ccccc3)C2)N2CCN=C2N1Cc1ccc(C(F)(F)F)cc1 (centres unmarked) [ONC237]

activity at DRD5 (DRD5): antagonist activity
activity at CXCR7 (CXCR7; arrestin recruitment reporter assay): agonist activity
Compound: O=C1C2=C(CCN(Cc3ccc(Cl)c(Cl)c3)C2)N2CCN=C2N1Cc1ccc(C(F)(F)F)cc1 [ONC234]
GPCR profile (GPCRs): broad spectrum and potent GPCR targeting small molecule
activity at DRD2 [1]: antagonist activity

Compound: Cc1ccccc1CN1C(=O)C2=C(CCN(Cc3ccccc3)C2)N2CCN=C12 [ONC201, 7-benzyl-4-(2-methylbenzyl)-1,2,6,7,8,9-hexahydroimidazo [1,2-a]pyrido [3,4-e]pyrimidin-5(1H)-one]
symptoms ([5]; 125 mg once weekly): complete resolution of their inability to use their left arm and hand
radiographic evaluation of tumor ([5]; 125 mg once weekly, after 6 weeks): stable tumor lesion
symptoms ([5]; 500 mg once weekly): near-complete resolution of their facial palsy; also recorded: improvement in facial palsy
radiographic evaluation of tumor ([5]; 500 mg once weekly, after 16 weeks): significant regression; also recorded: shrinkage of lesion
tolerability ([5]; once weekly dosing): tolerates the therapy well
interactions with the kinome (kinome): no significant interactions
activity at DRD4 (DRD4): weaker potency
GPCR profile (GPCRs): Antagonism of adrenoceptor alpha receptors or other GPCRs was not observed
activity at DRD5 (DRD5): no antagonism; also recorded: but not D1-like (DRD1/5)
activity at DRD2 [1]: selectively antagonizes; also recorded: antagonized
viability at 5000 µg/mL [6]: < 25%
progression-free survival (PFS) [7]: superior progression-free survival (PFS) in H3 K27M patients
concentration at 2 h [8]: 2600 ng/mL
Median OS (recurrent glioblastoma; [11]): 41.6 weeks
OS12 (recurrent glioblastoma; [11]): 35%
regression (recurrent glioblastoma; one patient, 625 mg every three weeks, after 15 months of therapy): 92%
time on study (recurrent glioblastoma; person one): > 10 weeks
response (recurrent glioblastoma; person one, H3 K27M, first on-treatment evaluation at 8 weeks): complete disappearance of malignant lesions; also recorded: complete disappearance of tumor lesions
time on therapy with durable response (recurrent glioblastoma; person two): > 1.5 years
response (recurrent glioblastoma; person two, H3.3 K27M mutant, 625 mg once every three weeks): durable objective response with complete regression of thalamic lesions
overall tumor size regression (recurrent glioblastoma; person two, H3.3 K27M mutant, 625 mg once every three weeks, after 18 doses): 96%
serum prolactin (recurrent glioblastoma; surrogate marker of target engagement): serum prolactin induction was observed; also recorded: significant induction of serum prolactin
leukemia xenograft tumor growth (MV411 AML cells): not efficacious
in vitro efficacy profiling [9]: broad anti-cancer efficacy with high sensitivity in human brain cancer cell lines
association rate for DRD2 (DRD2): very slow
survival of mice with orthotopic xenografts ([10]; monoagent and in combination with bevacizumab): prolongs the survival
effect on xenografts ([10]; temozolomide-resistant high-grade glioma xenografts): shrinks

Compound: O=C1C2=C(CCN(Cc3ccccc3)C2)N2CCN=C2N1Cc1cccs1 [ONC203]
anti-cancer efficacy [2]: inactive negative control

IC50 (HCT116 cells): 234 nM
IC50 (HCT116 cells; Homo sapiens, HCT-116): 88 nM
activity at GPR132 (GPR132): highly selective GPR132 agonist
Compound: O=C1C2=C(CCN(Cc3ccsc3)C2)N2CCN=C2N1Cc1ccc(C(F)(F)F)cc1 [ONC236]

Compound: TIC-10
inhibition of DRD2L (DRD2L): did not inhibit
